Laboratory results: ChEMBL document CHEMBL1201862, “PubChem BioAssay data set” (2004)
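These data come from cells grown in 96-well plates and exposed to compound for 48 hours at five concentrations. GI50: concentration for 50% inhibition of growth.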 Active and inactive are the calls of the source. No stated cut-off is given here; in the data, active = GI50 up to about 1.1 µM and inactive = higher.

Tests used:
Assay in all cases: NCI anticancer screen, dose series, 48 h
786-0 = test system: 786-0
A498 = test system: A498
A549 = test system: A549
ACHN = test system: ACHN
BT-549 = test system: BT-549
CAKI-1 = test system: CAKI-1
CCRF-CEM = test system: CCRF-CEM
COLO 205 = test system: COLO 205
DU-145 = test system: DU-145
EKVX = test system: EKVX
HCC 2998 = test system: HCC 2998
HCT-116 = test system: HCT-116
HCT-15 = test system: HCT-15
HOP-62 = test system: HOP-62
HOP-92 = test system: HOP-92
Hs-578T = test system: Hs-578T
IGROV-1 = test system: IGROV-1
K562 = test system: K562
KM12 = test system: KM12
LOX IMVI = test system: LOX IMVI
M14 = test system: M14
MCF7 = test system: MCF7
MDA-MB-231 = test system: MDA-MB-231
MDA-MB-435 = test system: MDA-MB-435
MDA-N = test system: MDA-N
MOLT-4 = test system: MOLT-4
Malme-3M = test system: Malme-3M
NCI-H23 = test system: NCI-H23
NCI-H460 = test system: NCI-H460
NCI-H522 = test system: NCI-H522
NCI/ADR-RES = test system: NCI/ADR-RES
OVCAR-3 = test system: OVCAR-3
OVCAR-4 = test system: OVCAR-4
OVCAR-5 = test system: OVCAR-5
OVCAR-8 = test system: OVCAR-8
PC-3 = test system: PC-3
RPMI-8226 = test system: RPMI-8226
RXF 393 = test system: RXF 393
SF-268 = test system: SF-268
SF-295 = test system: SF-295
SF-539 = test system: SF-539
SK-MEL-28 = test system: SK-MEL-28
SK-MEL-2 = test system: SK-MEL-2
SK-MEL-5 = test system: SK-MEL-5
SK-OV-3 = test system: SK-OV-3
SN12C = test system: SN12C
SNB-19 = test system: SNB-19
SNB-75 = test system: SNB-75
SR = test system: SR
SW-620 = test system: SW-620
T47D = test system: T47D
TK-10 = test system: TK-10
U-251 = test system: U-251
UACC-257 = test system: UACC-257
UACC-62 = test system: UACC-62
UO-31 = test system: UO-31
HT-29 = test system: HT-29
NCI-H226 = test system: NCI-H226

Structure (SMILES): O=C(/C=C/c1ccc(O)c(O)c1)O[C@H]1CCCC[C@@H]1OC(=O)/C=C/c1ccc(O)c(O)c1
- GI50 (786-0): 7.48 µM (inactive)
- GI50 (A498): 22.3 µM (inactive)
- GI50 (A549): 11.7 µM (inactive)
- GI50 (ACHN): 7.98 µM (inactive)
- GI50 (BT-549): 17.5 µM (inactive)
- GI50 (CAKI-1): 7.48 µM (inactive)
- GI50 (CCRF-CEM): 4.8 µM (inactive)
- GI50 (COLO 205): 22.9 µM (inactive)
- GI50 (DU-145): 13.8 µM (inactive)
- GI50 (EKVX): 20.6 µM (inactive)
- GI50 (HCC 2998): 11.2 µM (inactive)
- GI50 (HCT-116): 3.72 µM (inactive)
- GI50 (HCT-15): 6.73 µM
- GI50 (HOP-62): 9.77 µM (inactive)
- GI50 (HOP-92): 8.93 µM (inactive)
- GI50 (Hs-578T): 29.9 µM (inactive)
- GI50 (IGROV-1): 4.9 µM (inactive)
- GI50 (K562): 7.57 µM (inactive)
- GI50 (KM12): 20.7 µM (inactive)
- GI50 (LOX IMVI): 3.45 µM (inactive)
- GI50 (M14): 15.9 µM (inactive)
- GI50 (MCF7): 19.2 µM (inactive)
- GI50 (MDA-MB-231): 20.5 µM (inactive)
- GI50 (MDA-MB-435): 8.83 µM (inactive)
- GI50 (MDA-N): 8.87 µM (inactive)
- GI50 (MOLT-4): 3.85 µM (inactive)
- GI50 (Malme-3M): 15.7 µM (inactive)
- GI50 (NCI-H23): 13.6 µM (inactive)
- GI50 (NCI-H460): 5.14 µM (inactive)
- GI50 (NCI-H522): 5.22 µM (inactive)
- GI50 (NCI/ADR-RES): 21.8 µM (inactive)
- GI50 (OVCAR-3): 5.51 µM (inactive)
- GI50 (OVCAR-4): 17.9 µM (inactive)
- GI50 (OVCAR-5): 15.6 µM (inactive)
- GI50 (OVCAR-8): 10.9 µM (inactive)
- GI50 (PC-3): 15.6 µM (inactive)
- GI50 (RPMI-8226): 9.18 µM (inactive)
- GI50 (RXF 393): 10.5 µM (inactive)
- GI50 (SF-268): 11.6 µM (inactive)
- GI50 (SF-295): 12.9 µM (inactive)
- GI50 (SF-539): 11.1 µM (inactive)
- GI50 (SK-MEL-28): 15.8 µM (inactive)
- GI50 (SK-MEL-2): 22.7 µM (inactive)
- GI50 (SK-MEL-5): 6.04 µM (inactive)
- GI50 (SK-OV-3): 15.8 µM (inactive)
- GI50 (SN12C): 13.6 µM (inactive)
- GI50 (SNB-19): 12.3 µM (inactive)
- GI50 (SNB-75): 17.8 µM (inactive)
- GI50 (SR): 5.87 µM (inactive)
- GI50 (SW-620): 3.52 µM (inactive)
- GI50 (T47D): 16.2 µM (inactive)
- GI50 (TK-10): 14.9 µM (inactive)
- GI50 (U-251): 14.8 µM (inactive)
- GI50 (UACC-257): 15.6 µM (inactive)
- GI50 (UACC-62): 8.09 µM (inactive)
- GI50 (UO-31): 7.03 µM (inactive)

Structure (SMILES): O1C2C1C1OC1C1OC1C1OC21 (stereo not given)
- GI50 (A498): > 100 µM (inactive)
- GI50 (A549): > 100 µM (inactive)
- GI50 (ACHN): > 100 µM (inactive)
- GI50 (BT-549): > 100 µM (inactive)
- GI50 (CAKI-1): > 100 µM (inactive)
- GI50 (COLO 205): > 100 µM (inactive)
- GI50 (DU-145): > 100 µM (inactive)
- GI50 (EKVX): > 100 µM (inactive)
- GI50 (HCC 2998): > 100 µM (inactive)
- GI50 (HCT-116): > 100 µM (inactive)
- GI50 (HCT-15): > 100 µM
- GI50 (HOP-62): > 100 µM (inactive)
- GI50 (HOP-92): > 100 µM (inactive)
- GI50 (HT-29): > 100 µM (inactive)
- GI50 (Hs-578T): > 100 µM (inactive)
- GI50 (K562): > 100 µM (inactive)
- GI50 (KM12): > 100 µM (inactive)
- GI50 (LOX IMVI): > 100 µM (inactive)
- GI50 (M14): > 100 µM (inactive)
- GI50 (MCF7): > 100 µM (inactive)
- GI50 (MDA-MB-231): > 100 µM (inactive)
- GI50 (MDA-MB-435): > 100 µM (inactive)
- GI50 (MDA-N): > 100 µM (inactive)
- GI50 (MOLT-4): > 100 µM (inactive)
- GI50 (Malme-3M): > 100 µM (inactive)
- GI50 (NCI-H226): > 100 µM (inactive)
- GI50 (NCI-H23): > 100 µM (inactive)
- GI50 (NCI-H522): > 100 µM (inactive)
- GI50 (NCI/ADR-RES): > 100 µM (inactive)
- GI50 (OVCAR-4): > 100 µM (inactive)
- GI50 (OVCAR-5): > 100 µM (inactive)
- GI50 (OVCAR-8): > 100 µM (inactive)
- GI50 (PC-3): > 100 µM (inactive)
- GI50 (SF-268): > 100 µM (inactive)
- GI50 (SF-295): > 100 µM (inactive)
- GI50 (SK-MEL-28): > 100 µM (inactive)
- GI50 (SK-MEL-2): > 100 µM (inactive)
- GI50 (SK-MEL-5): > 100 µM (inactive)
- GI50 (SK-OV-3): > 100 µM (inactive)
- GI50 (SN12C): > 100 µM (inactive)
- GI50 (SNB-19): > 100 µM (inactive)
- GI50 (SNB-75): 11.6 µM (inactive)
- GI50 (SR): > 100 µM (inactive)
- GI50 (T47D): > 100 µM (inactive)
- GI50 (TK-10): > 100 µM (inactive)
- GI50 (U-251): > 100 µM (inactive)
- GI50 (UACC-257): > 100 µM (inactive)
- GI50 (UACC-62): > 100 µM (inactive)
- GI50 (UO-31): > 100 µM (inactive)
